These results are taken from patent US20200138031A1, “MIXTURES OF SABADILLA ALKALOIDS AND N-OCTYL BICYCLOHEPTENE DICARBOXIMIDE AND USES THEREOF” (priority 2016, published 2020).

This data set has as its system bed bug (Cimex lectularius). Put plainly: direct spray bioassay against bed bug. It is filed as in vivo. The conditions noted are these: for % Mortality: Hour 4; for mortality at 0.05 % strength / mortality at 0.5 % strength / mortality at 5 % strength: Cimex lectularius. The protocol: To determine if the mixtures provided unexpected results, the observed combined efficacy (“OCE”) was divided by the expected combined efficacy (“ECE”) to give an OCE/ECE ratio wherein the expected ECE is calculated by the Abbott method: […]
wherein ECE is the expected combined efficacy and in which A and B are the efficacy provided by the single active ingredients. If the ratio between the OCE of the mixture and the ECE of the mixture is greater than 1, then greater than expected interactions are present in the mixture. (Gisi, The American Phytopathological Society, 86:11, 1273-1279, 1996).
A direct spray bioassay for a mixture of sabadilla and MGK264 bed bug (Cimex lectularius) was conducted on February 27 to Mar. 6, 2019. A water-based formulation containing Sabadilla alone, MGK264 alone, or these combinations were prepared using test products and distilled water. Ten adults (1:1 sex ratio) of the bed bug (Cimex lectularius) were put into 200 mL clean cup (80 mm diameter×45 mm height) laid a filter paper (82 mm diameter) at the bottom. The cup was set on the bottom of CSMA chamber (460 mm×460 mm×700 mm height), and 0.5 mL of water (control) or water-based formulation of test products was sprayed from the distance of 60 cm toward the cup at the air pressure of 0.041 MPa (0.42 kg/cm2). […] The test was repeated 4 times and calculated mortality (%) at each observation point.

One may read the mortality as the percentage killed. As for `CCCCC(CC)CN1C(=O)C2C3C=CC(C3)C2C1=O` (stereo not drawn) [MGK264, N-octyl bicycloheptene dicarboximide], the “% Mortality” value is, setting by setting: (0.05 % w/w) 0.0%; (0.5 % w/w) 0.0%; (5.0 % w/w) 0.0%. For the same compound, the mortality at 0.05 % strength (24 h, 0.05 % w/w, Day 1) stood at 0%; the mortality at 0.05 % strength (48 h, 0.05 % w/w, Day 2) was determined as 0%; the mortality at 0.05 % strength (120 h, 0.05 % w/w, Day 5) came out at 0%; the mortality at 0.05 % strength (144 h, 0.05 % w/w, Day 6) was 0%; the mortality at 0.05 % strength (168 h, 0.05 % w/w, Day 7) was determined as 0%; the mortality at 0.05 % strength (0.05 % w/w, Hour 1) was determined as 0%. In addition, the mortality at 0.5 % strength (24 h, 0.5 % w/w, Day 1) stood at 0%; the mortality at 0.5 % strength (48 h, 0.5 % w/w, Day 2) turned out to be 0%; the mortality at 0.5 % strength (120 h, 0.5 % w/w, Day 5) amounted to 0%; the mortality at 0.5 % strength (144 h, 0.5 % w/w, Day 6) is 0%; the mortality at 0.5 % strength (168 h, 0.5 % w/w, Day 7) was 0%; the mortality at 0.5 % strength (0.5 % w/w, Hour 1) is 0%. In addition, the mortality at 5 % strength was 0% (24 h, 5.0 % w/w, Day 1); 0% (48 h, 5.0 % w/w, Day 2); 0% (120 h, 5.0 % w/w, Day 5); 0% (144 h, 5.0 % w/w, Day 6); 0% (168 h, 5.0 % w/w, Day 7); 0% (5.0 % w/w, Hour 1).
